Assay results: PubChem BioAssay AID179 (DTP/NCI, 2004)
Calls of active or inactive are those of the source.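 The calls were made as follows: active = compounds giving half or more protection of infected cells from virus-caused growth loss, again on retest; inactive = the rest.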

Test system: CEM cells HIV-1 protection, formazan growth assay
Test: NCI AIDS Antiviral Assay
Details: for IC50: measured here: growth of uninfected CEM cells
In short: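 Protection of CEM cells against HIV-1 was scored from cell growth (soluble formazan) across five concentrations, with parallel uninfected cells. Lack of protection may reflect toxicity.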

Row | SMILES | EC50 | IC50 | outcome
1 | c1ccc2c(C(c3c[nH]c4ccccc34)c3c[nH]c4ccccc34)c[nH]c2c1 | 0.0631 µM | 19.1 µM | 
2 | N#Cc1cc([N+](=O)[O-])ccc1NC(=O)/C(=N/N)C(C(=O)c1ccc(Cl)c(Cl)c1)C1OC(=O)c2ccccc21 (centres undefined) | > 64.6 µM | > 64.6 µM | 
3 | CN(C)c1ccc(/C=C2\C=Cc3ccccc32)cc1Br | > 8.32 µM | > 8.32 µM | 
4 | COC(=O)c1c([N+](=O)[O-])ncn1[C@H]1OC[C@@H](OC(C)=O)[C@@H](OC(C)=O)[C@@H]1OC(C)=O | > 200 µM | > 200 µM | 
5 | CC(c1ccc(Br)cc1)C(C(=O)O)C(=O)O (centres undefined) |  |  | inactive
6 | COC(=O)c1c(C)cccc1C1CN=NC12Cc1cc(C)cc(C)c1C2=O (centres undefined) | > 200 µM | 33.1 µM | 
7 | CN(C)CCCSCC(COc1nccc(-c2ccc(-c3ccc(-c4ccnc(OCC(CSCCCN(C)C)SCCCN(C)C)n4)s3)s2)n1)SCCCN(C)C (centres undefined) | > 4.27 µM | 2.69 µM | 
8 | COc1ccc(N2C(=O)/C(=C\c3ccc(N(CCC#N)CCC#N)cc3)N=C2COc2ccccc2)cc1 | > 26.9 µM | > 26.9 µM | 
9 | CC(CN(C)C)C(=O)c1ccccc1 (centres undefined) | > 912 µM | 55 µM | 
10 | CN(C)CCCN=C(N)CSP(=O)(O)O | > 200 µM | 32.4 µM | 
11 | CC1(C)OC[C@@H]([C@H](C=O)OCc2ccccc2)O1 | > 200 µM | > 200 µM | 
12 | Cc1ccc(S(=O)(=O)N/N=C(\C(=O)Nc2cccc([N+](=O)[O-])c2)c2nc3ccc([N+](=O)[O-])cc3[nH]c2=O)cc1 | > 123 µM | 115 µM | 
13 | NCCCC[C@@H](NC(=O)[C@H](CS)NC(=O)[C@@H](N)Cc1cnc[nH]1)C(=O)N[C@H](Cc1ccccc1)C(=O)N[C@H](Cc1c[nH]c2ccccc12)C(=O)N[C@@H](Cc1c[nH]c2ccccc12)C(N)=O | > 200 µM | > 200 µM | 
14 | CC(=C\c1ccccc1)/C=C1\C(=O)NC(=S)N1C=C1C(=O)NC(=O)NC1=O | > 200 µM | > 200 µM | 
15 | CCOc1ccccc1N1C(=O)C(=O)C(c2nc3ccccc3o2)C(=O)C1=O |  |  | inactive
16 | C/C=C/C#CC#CC(O)C(/C=C/CCCO)OC1OC(COC2OC(CO)C(O)C(O)C2O)C(O)C(O)C1O (centres undefined) | > 447 µM | > 447 µM | 

Row | SMILES | EC50 | IC50 | outcome
17 | CCn1ccc(=O)nc1 | > 200 µM | > 200 µM | 
18 | O=C(NC(=O)c1c(Cl)nc2sccn12)Nc1ccc(Cl)cc1 | > 10 µM | > 10 µM | 
19 | COC(=O)c1ccc(OCc2ccc3nc(OC)c(OC)nc3c2)cc1 | > 4.07 µM | > 4.07 µM | 
20 | COC(=O)c1csc(-c2csc(CCNC(=O)OC(C)(C)C)n2)n1 | > 355 µM | 60.3 µM | 
21 | CN(C)CCNc1cccc2oc3ccc(O)cc3c(=O)c12 | > 437 µM | 5.75 µM | 
22 | CN(C)CC1CCc2ccccc2C1=O (centres undefined) |  |  | inactive
23 | CCOC(=O)NC(C(=O)OCC)(N1CCN(c2cc3c(cc2F)c(=O)c(C(=O)O)cn3CC)CC1)C(F)(F)F (centres undefined) | > 200 µM | 145 µM | 
24 | CC(=O)OCC(CC[CH2][Sn]([Cl])([Cl])[c]1ccccc1)OC(C)=O (centres undefined) |  |  | inactive
25 | S=c1[nH]nc(-c2ccccc2)n1/N=C\c1ccc(-c2ccc(Cl)cc2)o1 | > 5.25 µM | > 5.25 µM | 
26 | CCCCCCCCNC(=O)SCCCC |  |  | inactive
27 | CCOC(=O)NC(Nc1ncn(C(NC(=O)OCC)(C(F)(F)F)C(F)(F)F)n1)(C(F)(F)F)C(F)(F)F | > 200 µM | > 200 µM | 
28 | O=C(c1ccccc1)[C@H]1Nc2cnccc2C2c3ccccc3CC21 (some centres undefined) | > 30.9 µM | > 30.9 µM | 
29 | C/C(=N/NC(=S)Nc1cccc(C)c1)c1ccccn1 | > 0.2 µM | 0.0955 µM | 
30 | CCOC(=O)c1c(NC(=O)CCC(=O)Nc2sc(C)c(C)c2C(=O)OCC)sc(C)c1C | > 100 µM | > 100 µM | 
31 | CN(C)CCCNC(=O)c1nc(NC(=O)c2nc(NC(=O)c3nc(NC(=O)/C=C/C(=O)Nc4cn(C)c(C(=O)Nc5cn(C)c(C(=O)Nc6cn(C)c(C(=O)NCCCN(C)C)n6)n5)n4)cn3C)cn2C)cn1C | > 50.1 µM | > 50.1 µM | 
32 | CCOC(=O)C1(C(N)=O)C(=O)c2ccncc2C1=O (centres undefined) | > 200 µM | > 200 µM | 
